The subject of the assay is Gram-positive and Gram-negative bacteria. The assay can be described thus: In vitro disc diffusion of identified amino acid sequences. Type of assay: cell-based. The protocol:
Each amino acid sequence identified in each of samples 1, sample 2 and sample 3, were checked for antibacterial activity using the invitro disc diffusion method of Murray P R et al; 1995 (Murray P R, Baron E J, Pfaller M A, Tenover F C, Yolke R H. (1995). Manual of Clinical Microbiology, ASM, Washington, D.C. 6th edition.)
The amino acid sequences were also compared to an Ampicillin standard of 10 μg/mL
(In agar diffusion tests the substance spreads into inoculated agar from a disc or well.)

Where no end group is shown, it is not given here.

For “RQWISRWTWQR [SEQ ID NO:6, antibacterial peptide from the <10 kDa fraction of date pits degraded by solid state degradation]”, the “Antibacterial activity of amino acid sequences” value was “maximum anti-bacterial activity” and the “Antibacterial activity compared with the standard drug ampicillin” value was “comparable to the standard drug ampicillin”.
As to “KRGRLIWRVWRGIW [SEQ ID NO: 4, antibacterial peptide from the <10 kDa fraction of date pits degraded by solid state degradation]”, the “Antibacterial activity of amino acid sequences” value is given as “maximum anti-bacterial activity” and the “Antibacterial activity compared with the standard drug ampicillin” value is recorded as “comparable to the standard drug ampicillin”.

(Values after patent publication US10517920B2, “Antibacterial peptide and method of treatment using the antibacterial peptide” (United Arab Emirates University, priority 2011, dated 2019).)
